Measured values: US10647713B2 (Nimbus Lakshmi, Inc., priority 2016, dated 2020)

Molecular target: human TYK2 (JH2domain-pseudokinase) (Homo sapiens (Human), UniProt P29597)
Assay: TYK2 JH2 Domain Binding Assay (KINOMEscan, DiscoveRx)
Conditions: 11-point dilution, duplicate
In short: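 TYK2 JH2 (G556–D888)–NFkB DBD fusion, DNA-tagged, from HEK293 extracts (<0.1 nM) competed against immobilised biotinylated ligand for 1 h at room temperature, 0.9% DMSO. Bead-retained kinase quantified by qPCR; Kd from 11-point 3-fold series (top 30,000 nM, duplicate), Hill fit with slope −1.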

Chain of human TYK2 (JH2domain-pseudokinase) (P29597 556-888): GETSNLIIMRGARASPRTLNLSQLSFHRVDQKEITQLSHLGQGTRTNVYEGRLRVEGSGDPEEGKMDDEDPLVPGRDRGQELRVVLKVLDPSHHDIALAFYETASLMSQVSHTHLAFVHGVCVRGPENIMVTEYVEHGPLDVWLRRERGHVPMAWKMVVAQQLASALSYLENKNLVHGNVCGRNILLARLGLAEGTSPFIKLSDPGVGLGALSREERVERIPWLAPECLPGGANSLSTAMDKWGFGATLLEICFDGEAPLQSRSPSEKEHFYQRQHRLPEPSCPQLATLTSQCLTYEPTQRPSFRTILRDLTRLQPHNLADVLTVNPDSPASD

SMILES | Kd
[2H]C([2H])([2H])N(c1ccccc1Nc1cc(Nc2cc(C)nc(C)n2)nc2[nH]c(C)nc12)S(=O)(=O)C([2H])([2H])[2H] [I-458, N-(2-((5-((2,6-dimethylpyrimidin-4-yl)amino)-2-methyl-3H-imidazo[4,5-b]pyridin-7-yl)amino)phenyl)-N-(methyl-d3)methanesulfonamide-d3] | 0.1 to 0.5 nM
Cc1nc2c(Nc3ccc([C@@H]4CCCO4)cc3S(C)(=O)=O)cc(NC(=O)C3CC3)nc2[nH]1 [I-472, (S)—N-(2-methyl-7-((2-(methylsulfonyl)-4-(tetrahydrofuran-2-yl)phenyl)amino)-3H-imidazo[4,5-b]pyridin-5-yl)cyclopropanecarboxamide] | 0.1 to 0.5 nM
Cc1nc2c(Nc3ccc(C4CC4)cc3S(C)(=O)=O)cc(Nc3cccc(C(F)(F)F)n3)nc2[nH]1 [I-273] | 0.5 to 1 nM
CS(=O)(=O)c1ccccc1Nc1cc(Nc2cccc(C(F)(F)F)n2)nc2[nH]c(C(F)F)nc12 [I-599] | 0.5 to 1 nM
Cc1cc(Nc2cc(Nc3ccc(-c4nn(C)cc4C)cc3S(C)(=O)=O)c3nc(C)[nH]c3n2)nc(C)n1 [I-511, N7-(4-(1,4-dimethyl-1H-pyrazol-3-yl)-2-(methylsulfonyl)phenyl)-N5-(2,6-dimethylpyrimidin-4-yl)-2-methyl-3H-imidazo[4,5-b]pyridine-5,7-diamine] | < 0.1 nM
CCOc1ccc(Nc2cc(Nc3ccc(F)cc3S(C)(=O)=O)c3nc(C)[nH]c3n2)nc1C#N [I-608, 3-ethoxy-6-((7-((4-fluoro-2-(methylsulfonyl)phenyl)amino)-2-methyl-3H-imidazo[4,5-b]pyridin-5-yl)amino)picolinonitrile] | 0.1 to 0.5 nM
COc1c(Nc2cc(Nc3ccc(N4CCOCC4)cn3)nc3[nH]cnc23)cccc1-c1ncn(C)n1 [I-7, N7-(2-methoxy-3-(1-methyl-1H-1,2,4-triazol-3-yl)phenyl)-N5-(5-morpholinopyridin-2-yl)-3H-imidazo[4,5-b]pyridine-5,7-diamine] | 0.1 to 0.5 nM
COc1c(Nc2cc(Nc3ccc(C(C)C)c(C#N)n3)nc3[nH]c(C)nc23)cccc1-c1nnn(C)n1 [I-115, 3-isopropyl-6-((7-((2-methoxy-3-(2-methyl-2H-tetrazol-5-yl)phenyl)amino)-2-methyl-3H-imidazo[4,5-b]pyridin-5-yl)amino)picolinonitrile] | 1 to 10 nM
COc1c(Nc2cc(NC(=O)C3CC3)nc3[nH]c(C(F)F)nc23)cccc1C(=O)O [I-140, 3-((5-(cyclopropanecarboxamido)-2-(difluoromethyl)-3H-imidazo[4,5-b]pyridin-7-yl)amino)-2-methoxybenzoic acid] | 1 to 10 nM
COC1CN(c2ccc(Nc3cc(NC(=O)C4CC4)nc4[nH]c(C)nc34)c(N(C)S(C)(=O)=O)c2)C1 [I-122, N-(7-((4-(3-methoxyazetidin-1-yl)-2-(N-methylmethylsulfonamido)phenyl)amino)-2-methyl-3H-imidazo[4,5-b]pyridin-5-yl)cyclopropanecarboxamide] | 1 to 10 nM
Cc1nc2c(Nc3ccc([C@H]4CCC(C)(C)O4)cc3S(C)(=O)=O)cc(NC(=O)C3CC3)nc2[nH]1 [I-591, (R)—N-(7-((4-(5,5-dimethyltetrahydrofuran-2-yl)-2-(methylsulfonyl)phenyl)amino)-2-methyl-3H-imidazo[4,5-b]pyridineyl)cyclopropanecarboxamide] | 0.1 to 0.5 nM
CN(c1cc(N2CCC2)ccc1Nc1cc(NC(=O)C2CC2)nc2[nH]c(C(F)F)nc12)S(C)(=O)=O [I-89, N-(7-((4-(azetidin-1-yl)-2-(N-methylmethylsulfonamido)phenyl)amino)-2-(difluoromethyl)-3H-imidazo[4,5-b]pyridin-5-yl)cyclopropanecarboxamide] | 0.5 to 1 nM
COc1cc(C(=O)N2CCCC2)ccc1Nc1cc(NC(=O)C2CC2)nc2[nH]c(C)nc12 [I-110, N-(7-((2-methoxy-4-(pyrrolidine-1-carbonyl)phenyl)amino)-2-methyl-3H-imidazo[4,5-b]pyridin-5-yl)cyclopropanecarboxamide] | 1 to 10 nM

The next lines start with the values.

Kd | SMILES
0.1 to 0.5 nM | Cc1cc(Nc2cc(Nc3ccc(-c4c(C)nn(C)c4C)cc3S(C)(=O)=O)c3nc(C(F)F)[nH]c3n2)nc(C)n1 [I-345]
< 0.1 nM | Cc1c(-c2ccc(Nc3cc(NC(=O)C4CC4)nc4[nH]c(C(F)F)nc34)c(N(C)S(C)(=O)=O)c2)cnn1C [I-198, N N-(2-(difluoromethyl)-7-((4-(1,5-dimethyl-1H-pyrazol-4-yl)-2-(N-methylmethylsulfonamido)phenyl)amino)-3H-imidazo[4,5-b]pyridin-5-yl)cyclopropanecarboxamide]
0.1 to 0.5 nM | Cc1ncc(Nc2cc(Nc3ccc(-c4c(C)nn(C)c4C)cc3S(C)(=O)=O)c3nc(C(F)F)[nH]c3n2)nc1C [I-343]
0.1 to 0.5 nM | Cc1nc2c(Nc3ccc([C@@H]4CCCCO4)cc3S(C)(=O)=O)cc(NC(=O)[C@H]3CC3(F)F)nc2[nH]1 [I-278, (R)-2,2-difluoro-N-(2-methyl-7-((2-(methylsulfonyl)-4-((S)-tetrahydro-2H-pyran-2-yl)phenyl)amino)-3H-imidazo[4,5-b]pyridin-5-yl)cyclopropane-1-carboxamide]
0.1 to 0.5 nM | CS(=O)(=O)c1cc([C@@H]2CCCCO2)ccc1Nc1cc(NC(=O)C2CC2)nc2[nH]c(C(F)F)nc12 [I-247, (S)—N-(2-(difluoromethyl)-7-((2-(methylsulfonyl)-4-(tetrahydro-2H-pyran-2-yl)phenyl)amino)-3H-imidazo[4,5-b]pyridin-5-yl)cyclopropanecarboxamide]
0.1 to 0.5 nM | Cc1nc2c(Nc3ccc(-c4ccn(C)n4)cc3N(C)S(C)(=O)=O)cc(NC(=O)C3CC3)nc2[nH]1 [I-174, N-(2-methyl-7-((4-(1-methyl-1H-pyrazol-3-yl)-2-(N-methyl-methysulfonamido)phenyl)amino)-3H-imidazo[4,5-b]pyridin-5-yl)cyclopropanecarboxamide]
0.5 to 1 nM | CN(c1ccccc1Nc1cc(Nc2cccc(C(F)(F)F)n2)nc2[nH]c(C(F)F)nc12)S(C)(=O)=O [I-87, N-(2-((2-(difluoromethyl)-5-((6-(trifluoromethyl)pyridin-2-yl)amino)-3H-imidazo[4,5-b]pyridin-7-yl)amino)phenyl)-N-methylmethanesulfonamide]
0.1 to 0.5 nM | CS(=O)(=O)c1ccccc1Nc1cc(Nc2ccc3c(n2)C(F)(F)CC3)nc2[nH]c(C(F)F)nc12 [I-617, N5-(7,7-difluoro-6,7-dihydro-5H-cyclopenta[b]pyridin-2-yl)-2-(difluoromethyl)-N7-(2-(methylsulfonyl)phenyl)-3H-imidazo[4,5-b]pyridine-5,7-diamine]
1 to 10 nM | Cc1cn(C)nc1-c1ccc(Nc2cc(NC(=O)C3CC3(C)C)nc3[nH]c(C(F)F)nc23)c(S(C)(=O)=O)c1 (stereo not drawn) [I-364, N-(2-(difluoromethyl)-7-((4-(1,4-dimethyl-1H-pyrazol-3-yl)-2-(methylsulfonyl)phenyl)amino)-3H-imidazo[4,5-b]pyridin-5-yl)-2,2-dimethylcyclopropane-1-carboxamide]
0.5 to 1 nM | Cn1ccc(-c2ccc(Nc3cc(NC(=O)[C@@H]4CC4(F)F)nc4[nH]c(C(F)F)nc34)c(S(C)(=O)=O)c2)n1 [I-237, (S)—N-(2-(difluoromethyl)-7-((4-(1-methyl-1H-pyrazol-3-yl)-2-(methylsulfonyl)phenyl)amino)-3H-imidazo[4,5-b]pyridin-5-yl)-2,2-difluorocyclopropane-1-carboxamide]
1 to 10 nM | Cc1nc2c(Nc3ccc(-c4nn(C)cc4C)cc3S(C)(=O)=O)cc(NC(=O)[C@@H]3CC3(C)C)nc2[nH]1 [I-478, (R)—N-(7-((4-(1,4-dimethyl-1H-pyrazol-3-yl)-2-(methylsulfonyl)phenyl)amino)-2-methyl-3H-imidazo[4,5-b]pyridin-5-yl)-2,2-dimethylcyclopropane-1-carboxamide]
